Entries after “also recorded” stand apart in the source; their conditions may differ.
The sequences below were run on HLA-DR.
Type: cell-based, human
For AANIIGILHLILWILDRL [H7N9-10], the “% Inhibition by HLA-DR blocking Ab” value was 68% and the “Peptide-specific T cell response on blocking HLA-DR (in words)” value (from here on “Peptide-specific T cell response”) was “only partially inhibited”.
With AVKLYKKLKREMTFHGA [H7N9-9] the “% Inhibition by HLA-DR blocking Ab” value was 100%.
For DKLYERVKRQLRENAEED [H7N9-8], the “% Inhibition by HLA-DR blocking Ab” value was 89% and the “Peptide-specific T cell response” value was “only partially inhibited”.
In the case of IVYWKQWLSLKNLTQ [H7N9-14A], the “% Inhibition by HLA-DR blocking Ab” value is reported as 100%.
In the case of KGILGFVFTLTVPSERGLQ [H7N9-3], the “% Inhibition by HLA-DR blocking Ab” value is reported as 97% and the “Peptide-specific T cell response” value is reported as “only partially inhibited”.
“PKYVKSNRLVLATG [IAV-4, reference compound]” was tested, and the “% Inhibition by HLA-DR blocking Ab” value was 96% and the “Peptide-specific T cell response” value was “only partially inhibited”.
For “PKYVKSTKLRLATG [IAV-1, reference compound]”, the “% Inhibition by HLA-DR blocking Ab” value was 100%.
With “PRYVKQNTLKLATG [IAV-3, reference compound]” the “% Inhibition by HLA-DR blocking Ab” value was 78% and the “Peptide-specific T cell response” value was “only partially inhibited”.
PRYVKQRSLLLATG [H7N9-13] was tested, and the “% Inhibition by HLA-DR blocking Ab” value was 100%.
“PRYVKQSTLKLATG [IAV-2, reference compound]” was tested, and the “% Inhibition by HLA-DR blocking Ab” value was 73% and the “Peptide-specific T cell response” value was “only partially inhibited”.
With QITFMQALQLLLEVE [H7N9-12] the “% Inhibition by HLA-DR blocking Ab” value was 100%.
For QPEWFRNVLSIAPIMFSNK [H7N9-4], the “% Inhibition by HLA-DR blocking Ab” value was 100%.
With RIDFHWLMLNPNDTVTFS [H7N9-1] the “% Inhibition by HLA-DR blocking Ab” value was 46% and the “Peptide-specific T cell response” value was “only partially inhibited”.
With SRKLLLIVQALRDNLEPG [H7N9-11] the “% Inhibition by HLA-DR blocking Ab” value was “increased response” and the “Peptide-specific T cell response” value was “response increased; also recorded: response was absent except when HLA-DR was blocked”.
In the case of YAEMKWLLSNTDNAAFPQ [H7N9-2], the “% Inhibition by HLA-DR blocking Ab” value is reported as 100%.

Each sequence was assayed on Normal subject PBMC.
Type: cell-based, human
AVKLYKKLKREMTFHGA [H7N9-9] was tested, and the “Suppression of T cell response to pool of H7N9 ICS peptides” value was “did not suppress T cell responses”.
IVYWKQWLSLKNLTQ [H7N9-14A] was tested, and the “Responses to the pool of IAV peptides (1-4) in presence of peptide” value (from here on “Responses to the pool of IAV peptides”) was “Reduced responses”.
PRYVKQRSLLLATG [H7N9-13] was tested, and the “Responses to the pool of IAV peptides” value was “Reduced responses”, the “Suppression of T cell response to pool of H7N9 ICS peptides” value was “significantly suppressed T cell response to the pooled peptides; also recorded: significantly decreased” and the “Suppression of T cell responses to immunodominant HA peptides from circulating IAV strains” value was “significantly suppressed T cell response to IAV-3; also recorded: able to suppress responses”.
With WKQWLSLKNTLTQGSL [H7N9-14B] the “Responses to the pool of IAV peptides” value was “Reduced responses”.

Reference: US20180179256A1 (priority 2015, published 2018)
